Here are results for 22 compounds from patent US20220194938A1, “NOVEL COMPOUNDS AND PHARMACEUTICAL COMPOSITIONS THEREOF FOR THE TREATMENT OF INFLAMMATORY DISORDERS” (GALAPAGOS NV, priority 2019, published 2022).

The test system of data set [1] is pooled cryopreserved hepatocytes. The experiment in a line: Metabolic stability in hepatocytes (mouse). The data set is classed as in vitro ADME. Particulars: 1 μM test compound. The method, then:
4.6. Metabolic Stability in Hepatocytes
The aim of this assay is to determine the metabolic stability of the compound in hepatocytes (cryopreserved) of different species. Low hepatocyte stability may result in the formation of unwanted metabolites, high clearance, and therefore is not desirable.
The decrease in parent was assessed by measuring the percentage remaining by LC-MS/MS analysis.
A 10 mM stock solution of test compound in DMSO was first diluted in DMSO to 3 mM, and then in modified Krebs-Henseleit buffer (Sigma, K3753) to 5 μM. This compound dilution was added to a suspension of pooled cryopreserved hepatocytes (BioreclamationIVT) at 37° C. under gentle shaking.
Final reaction conditions were: 1 μM of test compound, 0.03% DMSO, 0.5 million viable hepatocytes/mL, and 75 μL incubation volume.
Testosterone (1 μM) and 7-hydroxycoumarin (1 μM) were used, respectively as phase I and phase II metabolic reaction controls.
After 0, 10, 20, 45, 90, 120 and 180 min of incubation, the reaction was terminated with 225 μL of MeCN:MeOH (2:1) containing 100 ng/mL of diclofenac as analytical internal standard. Samples were mixed, centrifuged and the supernatant analyzed by LC-MS/MS.
The instrument responses (ratios of test compound and internal standard peak areas) were referenced to the zero time point samples (considered as 100%) in order to determine the percentage of compound remaining.
Plots of percentage compound remaining are used to determine the intrinsic clearance in the hepatocyte incubations using the following equations:
Scaled Clint[L/h/kg]=Clint[μL/min/10^6 cells]*#(10^6) cells/g liver*60*(1/10^6) Scaled Clint unbound [L/h/kg]=Clint [L/h/kg]/Fu,inc where: fu,inc equals hepatocyte binding, derived from microsomal binding (fu,mic) by following equation: […]

In another data set the target is T1, human IRAK-4 (Homo sapiens, UniProt Q9NWZ3).
T1 construct: purchased Carna Biosciences 09 145
T1 sequence (Q9NWZ3 1-460): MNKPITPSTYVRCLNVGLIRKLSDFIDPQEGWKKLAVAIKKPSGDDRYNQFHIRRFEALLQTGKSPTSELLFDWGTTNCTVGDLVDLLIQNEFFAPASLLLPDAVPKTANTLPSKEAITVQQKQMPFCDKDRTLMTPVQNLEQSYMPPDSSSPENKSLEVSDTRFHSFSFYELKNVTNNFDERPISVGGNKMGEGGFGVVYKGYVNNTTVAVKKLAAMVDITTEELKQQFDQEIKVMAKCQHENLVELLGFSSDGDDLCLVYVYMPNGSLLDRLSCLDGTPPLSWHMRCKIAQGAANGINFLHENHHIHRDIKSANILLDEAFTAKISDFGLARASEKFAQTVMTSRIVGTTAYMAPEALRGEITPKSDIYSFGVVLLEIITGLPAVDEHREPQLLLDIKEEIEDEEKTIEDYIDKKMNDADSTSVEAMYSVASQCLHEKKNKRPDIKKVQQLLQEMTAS
The data set can be described thus: Phosphorylation IC50 determination for human IRAK-4 (ADP-Glo kinase assay). Particulars: human IRAK-4, RIP140 substrate, Km ATP; read-out: IRAK4 ADPglo biochemical assay IC50. The gist of the method:
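IRAK-4 phosphorylation of RIP140 at Km ATP in Tris pH 7.5 buffer with Triton X-100, EGTA, MgCl2, DTT and MnCl2, 120 min at room temperature. ADP formed was measured by ADP-Glo luminescence. Ten-point, 5-fold dilutions (highest final 20 μM, automated format; 1% DMSO), normalised to staurosporine (100%) and DMSO (0%) controls.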
(In general: In ADP-Glo the light output rises with the ADP produced.)

As usually defined, the IC50 is the concentration that gives 50% inhibition.

For `[2H]C([2H])([2H])NC(=O)c1cc2nc(CCC(C)(C)O)cn2cc1NC(=O)c1cccc(C(F)(F)F)n1` [Compound 1, 2-(3-hydroxy-3-methyl-butyl)-N-(trideuteriomethyl)-6-[[6-(trifluoromethyl)pyridine-2-carbonyl]amino]imidazo[1,2-a]pyridine-7-carboxamide], the “Mouse (Perc. remaining at 90 min)” value in data set [1] worked out at 96.3%. For the same compound, on human IRAK-4, the half-maximal inhibitory concentration (IC50) fell in the range of 0.1 to 5 nM. With `CNC(=O)c1cc2nc(CCC(C)(C)O)cn2cc1NC(=O)c1cccc(C(F)(F)F)n1` [Compound 2, 2-(3-hydroxy-3-methyl-butyl)-N-methyl-6-[[6-(trifluoromethyl)pyridine-2-carbonyl]amino]imidazo[1,2-a]pyridine-7-carboxamide], in data set [1], the “Mouse (Perc. remaining at 90 min)” value came to 103.4%. Moreover, the IC50 on human IRAK-4 was 0.1 to 5 nM.

With `COc1cc2nc(CCC(C)(C)O)cn2cc1NC(=O)c1cccc(C(F)(F)F)n1` [Compound 3, N-[2-(3-hydroxy-3-methyl-butyl)-7-methoxy-imidazo[1,2-a]pyridin-6-yl]-6-(trifluoromethyl)pyridine-2-carboxamide], the “Mouse (Perc. remaining at 90 min)” value in data set [1] came to 39.9%. In addition, the IC50 on human IRAK-4 was 0.1 to 5 nM. The like results for `COc1cc2nc(CCC(C)(C)O)cn2cc1NC(=O)c1cccn(C)c1=O` [Compound 4, N-[2-(3-hydroxy-3-methyl-butyl)-7-methoxy-imidazo[1,2-a]pyridin-6-yl]-1-methyl-2-oxo-pyridine-3-carboxamide] were, in that order, 87.75% and 5 to 10 nM.

`COc1cc2nc(CCC(C)(C)O)cn2cc1NC(=O)c1cccn(C2CC2)c1=O` [Compound 5, 1-cyclopropyl-N-[2-(3-hydroxy-3-methyl-butyl)-7-methoxy-imidazo[1,2-a]pyridin-6-yl]-2-oxo-pyridine-3-carboxamide]: the “Mouse (Perc. remaining at 90 min)” value in data set [1] is recorded as 100%. Besides, on human IRAK-4, the IC50 fell in the range of 0.1 to 5 nM. `COc1cc2nc(CCC(C)(C)O)cn2cc1NC(=O)c1cccc(C)n1` [Compound 6, N-[2-(3-hydroxy-3-methyl-butyl)-7-methoxy-imidazo[1,2-a]pyridin-6-yl]-6-methyl-pyridine-2-carboxamide]: in data set [1], the “Mouse (Perc. remaining at 90 min)” value was 4.5%. At human IRAK-4, the IC50 is 0.1 to 5 nM. The like results for `COc1cc2nc(CCC(C)(C)O)cn2cc1NC(=O)c1cccc(C(F)F)n1` [Compound 7, 6-(difluoromethyl)-N-[2-(3-hydroxy-3-methyl-butyl)-7-methoxy-imidazo[1,2-a]pyridin-6-yl]pyridine-2-carboxamide] were, in that order, 26.4% and 0.1 to 5 nM.

With `COc1cccc(C(=O)Nc2cn3cc(CCC(C)(C)O)nc3cc2OC)n1` [Compound 8, N-[2-(3-hydroxy-3-methyl-butyl)-7-methoxy-imidazo[1,2-a]pyridin-6-yl]-6-methoxy-pyridine-2-carboxamide], in data set [1], the “Mouse (Perc. remaining at 90 min)” value is given as 26.4%. In addition, the IC50 on human IRAK-4 fell in the range of 0.1 to 5 nM. For the compound `COc1cc2nc(CCC(C)(C)O)cn2cc1NC(=O)c1cccn(C(F)F)c1=O` [Compound 12, 1-(difluoromethyl)-N-[2-(3-hydroxy-3-methyl-butyl)-7-methoxy-imidazo[1,2-a]pyridin-6-yl]-2-oxo-pyridine-3-carboxamide], the “Mouse (Perc. remaining at 90 min)” value in data set [1] was 88.1%. Further, the IC50 at human IRAK-4 fell in the range of 5 to 10 nM.

On to `COc1cc2nc(CCC(C)(C)O)cn2cc1NC(=O)c1cccn(CC(F)(F)F)c1=O` [Compound 13, N-[2-(3-hydroxy-3-methyl-butyl)-7-methoxy-imidazo[1,2-a]pyridin-6-yl]-2-oxo-1-(2,2,2-trifluoroethyl)pyridine-3-carboxamide], for which the “Mouse (Perc. remaining at 90 min)” value in data set [1] turned out to be 109.5%. Also, on human IRAK-4, the IC50 is more than 50 nM. The like results for `COc1cc2nc(CCC(C)(C)O)cn2cc1NC(=O)c1cccn(C2CCC2)c1=O` [Compound 18, 1-cyclobutyl-N-[2-(3-hydroxy-3-methyl-butyl)-7-methoxy-imidazo[1,2-a]pyridin-6-yl]-2-oxo-pyridine-3-carboxamide] were, in that order, 60.9% and 0.1 to 5 nM. `COc1cc2nc(CCC(C)(C)O)cn2cc1NC(=O)c1cccc(C(C)(F)F)n1` [Compound 20, 6-(1,1-difluoroethyl)-N-[2-(3-hydroxy-3-methyl-butyl)-7-methoxy-imidazo[1,2-a]pyridin-6-yl]pyridine-2-carboxamide]: the “Mouse (Perc. remaining at 90 min)” value in data set [1] is 75.2%. In addition, the IC50 on human IRAK-4 fell in the range of 0.1 to 5 nM.

On to `CCn1cccc(C(=O)Nc2cn3cc(CCC(C)(C)O)nc3cc2OC)c1=O` [Compound 23, 1-ethyl-N-[2-(3-hydroxy-3-methyl-butyl)-7-methoxy-imidazo[1,2-a]pyridin-6-yl]-2-oxo-pyridine-3-carboxamide], for which the “Mouse (Perc. remaining at 90 min)” value in data set [1] came to 89.65%. For the same compound, the IC50 on human IRAK-4 lay in the range of 5 to 10 nM. For the compound `COc1cc2nc(CCS(C)(=O)=O)cn2cc1NC(=O)c1cccc(C(F)(F)F)n1` [Compound 24, N-[7-methoxy-2-(2-methylsulfonylethyl)imidazo[1,2-a]pyridin-6-yl]-6-(trifluoromethyl)pyridine-2-carboxamide], in data set [1], the “Mouse (Perc. remaining at 90 min)” value worked out at 46%. Besides, on human IRAK-4, the IC50 fell in the range of 0.1 to 5 nM. Consider `COc1cc2nc(CCS(C)(=O)=O)cn2cc1NC(=O)c1cccn(C2CC2)c1=O` [Compound 25, 1-cyclopropyl-N-[7-methoxy-2-(2-methylsulfonylethyl)imidazo[1,2-a]pyridin-6-yl]-2-oxo-pyridine-3-carboxamide], for which, in data set [1], the “Mouse (Perc. remaining at 90 min)” value came to 95.05%. For the same compound, at human IRAK-4, the IC50 lay within 0.1 to 5 nM.

Regarding `CC(C)(O)CCc1cn2cc(NC(=O)c3cccc(C(F)(F)F)n3)c(C(N)=O)cc2n1` [Compound 31, 2-(3-hydroxy-3-methyl-butyl)-6-[[6-(trifluoromethyl)pyridine-2-carbonyl]amino]imidazo[1,2-a]pyridine-7-carboxamide], in data set [1], the “Mouse (Perc. remaining at 90 min)” value stood at 96.5%. The IC50 on human IRAK-4 was 0.1 to 5 nM. The like results for `COCCc1cn2cc(NC(=O)c3cccc(C(F)(F)F)n3)c(OC)cc2n1` [Compound 35, N-[7-methoxy-2-(2-methoxyethyl)imidazo[1,2-a]pyridin-6-yl]-6-(trifluoromethyl)pyridine-2-carboxamide] were, in that order, 25.85% and 10 to 50 nM. The like results for `CCOc1c(NC(=O)c2cccn(C3CC3)c2=O)cn2cc(CCC(C)(C)O)nc2c1F` [Compound 37, 1-cyclopropyl-N-[7-ethoxy-8-fluoro-2-(3-hydroxy-3-methyl-butyl)imidazo[1,2-a]pyridin-6-yl]-2-oxo-pyridine-3-carboxamide] were, in that order, 103.5% and 0.1 to 5 nM. On to `CCOc1c(NC(=O)c2cccn(C)c2=O)cn2cc(CCC(C)(C)O)nc2c1F` [Compound 38, N-[7-ethoxy-8-fluoro-2-(3-hydroxy-3-methyl-butyl)imidazo[1,2-a]pyridin-6-yl]-1-methyl-2-oxo-pyridine-3-carboxamide], for which the 50% inhibitory concentration (IC50) on human IRAK-4 was in the range of 5 to 10 nM.

As to `CCOc1c(NC(=O)c2cccn(C3CC3)c2=O)cn2cc(CCS(C)(=O)=O)nc2c1F` [Compound 39, 1-cyclopropyl-N-[7-ethoxy-8-fluoro-2-(2-methylsulfonylethyl)imidazo[1,2-a]pyridin-6-yl]-2-oxo-pyridine-3-carboxamide], the IC50 on human IRAK-4 fell in the range of 5 to 10 nM.

With `COc1c(NC(=O)c2cccn(C3CC3)c2=O)cn2cc(CCC(C)(C)O)nc2c1F` [Compound 42, 1-cyclopropyl-N-[8-fluoro-2-(3-hydroxy-3-methyl-butyl)-7-methoxy-imidazo[1,2-a]pyridin-6-yl]-2-oxo-pyridine-3-carboxamide], the “Mouse (Perc. remaining at 90 min)” value in data set [1] was found to be 91.45%. Further, the IC50 on human IRAK-4 fell in the range of 0.1 to 5 nM. The like results for `CC(C)(O)CCc1cn2cc(NC(=O)c3cccc(C(F)(F)F)n3)c(C(=O)NCC(F)F)cc2n1` [Compound 48, N-(2,2-difluoroethyl)-2-(3-hydroxy-3-methylbutyl)-6-(6-(trifluoromethyl)picolinamido)imidazo[1,2-a]pyridine-7-carboxamide] were, in that order, 86% and 0.1 to 5 nM.
